Data as given in ChEMBL document CHEMBL1145084, “Polymer-assisted solution-phase library synthesis and crystal structure of alpha-ketothiazoles as tissue factor VIIa inhibitors” (J Med Chem, 2003).

What follows are molecules tested against Thrombin and coagulation factor VII (Homo sapiens) (UniProt P00734+P08709) (assay: Selectivity for coagulation factor VIIa over thrombin IIa.).
Type: protein assay

Q: Which Selectivity does the source give for N=C(N)NCCC[C@H](NC(=O)[C@H](Cc1cccnc1)NC(=O)[C@@H](Cc1ccccc1)NS(=O)(=O)Cc1ccccc1)C(=O)c1nccs1 here?
A: The Selectivity was 500.

Q: Which Selectivity does the source give for CC(C)(C)C[C@H](NC(=O)[C@@H](Cc1ccccc1)NS(=O)(=O)Cc1ccccc1)C(=O)N[C@@H](CCCN=C(N)N)C(=O)c1nccs1 here?
A: Its Selectivity is 0.6.

Q: With N#Cc1ccc(C[C@H](NC(=O)[C@@H](Cc2ccccc2)NS(=O)(=O)Cc2ccccc2)C(=O)N[C@@H](CCCNC(=N)N)C(=O)c2nccs2)cc1 as the molecule, how does the Selectivity read?
A: Its Selectivity is 147.

Q: N=C(N)NCCC[C@H](NC(=O)[C@H](Cc1ccccc1)NC(=O)[C@@H](Cc1ccccc1)NS(=O)(=O)Cc1ccccc1)C(=O)c1nccs1 was tested. Which Selectivity did it give?
A: Its Selectivity is 95.

Q: For N=C(N)NCCC[C@H](NC(=O)[C@H](Cc1ccc([N+](=O)[O-])cc1)NC(=O)[C@@H](Cc1ccccc1)NS(=O)(=O)Cc1ccccc1)C(=O)c1nccs1, which Selectivity is on record?
A: Its Selectivity is > 5.

Q: How did the Selectivity turn out when Cc1cccc(C[C@H](NC(=O)[C@@H](Cc2ccccc2)NS(=O)(=O)Cc2ccccc2)C(=O)N[C@@H](CCCN=C(N)N)C(=O)c2nccs2)c1 was run?
A: Its Selectivity is 71.

Q: How did the Selectivity turn out when CN(C)CCCC[C@H](NC(=O)[C@@H](Cc1ccccc1)NS(=O)(=O)Cc1ccccc1)C(=O)N[C@@H](CCCN=C(N)N)C(=O)c1nccs1 was run?
A: Its Selectivity is 5.

Q: For N=C(N)NCCC[C@H](NC(=O)[C@H](Cc1ccc(F)c(F)c1)NC(=O)[C@@H](Cc1ccccc1)NS(=O)(=O)Cc1ccccc1)C(=O)c1nccs1, which Selectivity is on record?
A: Its Selectivity is 70.

Q: N#CC[C@H](NC(=O)[C@@H](Cc1ccccc1)NS(=O)(=O)Cc1ccccc1)C(=O)N[C@@H](CCCNC(=N)N)C(=O)c1nccs1 was tested. Which Selectivity did it give?
A: The Selectivity was 69.

Q: Cc1ccccc1C[C@H](NC(=O)[C@@H](Cc1ccccc1)NS(=O)(=O)Cc1ccccc1)C(=O)N[C@@H](CCCN=C(N)N)C(=O)c1nccs1 was tested. Which Selectivity did it give?
A: Its Selectivity is 90.

Q: Which Selectivity does the source give for N=C(N)NCCC[C@H](NC(=O)[C@H](Cc1cccc(C(F)(F)F)c1)NC(=O)[C@@H](Cc1ccccc1)NS(=O)(=O)Cc1ccccc1)C(=O)c1nccs1 here?
A: Its Selectivity is 106.

Q: N=C(N)NCCC[C@H](NC(=O)[C@H](Cc1cccc(Cl)c1)NC(=O)[C@@H](Cc1ccccc1)NS(=O)(=O)Cc1ccccc1)C(=O)c1nccs1 was tested. Which Selectivity did it give?
A: Its Selectivity is 63.

Q: How did the Selectivity turn out when N=C(N)NCCC[C@H](NC(=O)[C@H](Cc1cccc(F)c1)NC(=O)[C@@H](Cc1ccccc1)NS(=O)(=O)Cc1ccccc1)C(=O)c1nccs1 was run?
A: The Selectivity was 75.

Q: With N=C(N)NCCC[C@H](NC(=O)[C@H](CC(N)=O)NC(=O)[C@@H](Cc1ccccc1)NS(=O)(=O)Cc1ccccc1)C(=O)c1nccs1 as the molecule, how does the Selectivity read?
A: Its Selectivity is 58.

Q: CC(=O)Nc1ccc(C[C@H](NC(=O)[C@@H](Cc2ccccc2)NS(=O)(=O)Cc2ccccc2)C(=O)N[C@@H](CCCN=C(N)N)C(=O)c2nccs2)cc1 was tested. Which Selectivity did it give?
A: Its Selectivity is 8.

Q: With CC[C@@H](C)[C@H](NC(=O)[C@@H](Cc1ccccc1)NS(=O)(=O)Cc1ccccc1)C(=O)N[C@@H](CCCN=C(N)N)C(=O)c1nccs1 as the molecule, how does the Selectivity read?
A: Its Selectivity is 64.

Q: N=C(N)NCCC[C@H](NC(=O)[C@H](Cc1ccccc1F)NC(=O)[C@@H](Cc1ccccc1)NS(=O)(=O)Cc1ccccc1)C(=O)c1nccs1 was tested. Which Selectivity did it give?
A: Its Selectivity is > 333.
